# Measurements as given in PMC8234620, “An Integrated Peptidomics and In Silico Approach to Identify Novel Anti-Diabetic Peptides in Parmigiano-Reggiano Cheese” (Biology, 2021).
# Ends that are not written are not given here. Peptide text beside a SMILES is read from it.
# Assays:
# [1] = set-up: method as in BIOPEP database and Milk Bioactive Peptides Database; conditions: ref BIOPEP database and Milk Bioactive Peptides Database; cited from earlier work
# [2] = set-up: method as in BIOPEP database and Milk Bioactive Peptides Database; conditions: ref BIOPEP database and Milk Bioactive Peptides Database; cited from earlier work; remark: listed apart in the source
# [3] = set-up: method as in BIOPEP database and Milk Bioactive Peptides Database; conditions: ref BIOPEP database and Milk Bioactive Peptides Database; cited from earlier work; remark: listed apart in the source
# [4] = test system: angiotensin converting enzyme; conditions: cited from earlier work; for Bioactivity: ACE-inhibition: ref BIOPEP database and Milk Bioactive Peptides Database; for IC50 values against ACE: ref [47],[48],[49]
# DPP-IV = conditions: cited from earlier work; for Bioactivity: DPP-IV-inhibition: ref BIOPEP database and Milk Bioactive Peptides Database; for IC50: ref [41],[51],[52], read-out: IC50 DPP-IV, previously reported
# [5] = set-up: method as in PMID 16899668, doi:10.1016/j.foodres.2015.12.007; conditions: spontaneously hypertensive rats; ref [48],[49]; cited from earlier work
# [6] = set-up: method as in BIOPEP database and Milk Bioactive Peptides Database; conditions: ref BIOPEP database and Milk Bioactive Peptides Database; cited from earlier work; remark: listed apart in the source
# yeast α-glucosidase = yeast α-glucosidase (Saccharomyces cerevisiae, UniProt P53341); test: α-Glucosidase assay; type: biochemical; conditions: for inhibition at 1000 µM: read-out: percentage of inhibition of α-glucosidase; for IC50: synthetic peptides, n.a. = not active
# Chain of yeast α-glucosidase (P53341 whole entry): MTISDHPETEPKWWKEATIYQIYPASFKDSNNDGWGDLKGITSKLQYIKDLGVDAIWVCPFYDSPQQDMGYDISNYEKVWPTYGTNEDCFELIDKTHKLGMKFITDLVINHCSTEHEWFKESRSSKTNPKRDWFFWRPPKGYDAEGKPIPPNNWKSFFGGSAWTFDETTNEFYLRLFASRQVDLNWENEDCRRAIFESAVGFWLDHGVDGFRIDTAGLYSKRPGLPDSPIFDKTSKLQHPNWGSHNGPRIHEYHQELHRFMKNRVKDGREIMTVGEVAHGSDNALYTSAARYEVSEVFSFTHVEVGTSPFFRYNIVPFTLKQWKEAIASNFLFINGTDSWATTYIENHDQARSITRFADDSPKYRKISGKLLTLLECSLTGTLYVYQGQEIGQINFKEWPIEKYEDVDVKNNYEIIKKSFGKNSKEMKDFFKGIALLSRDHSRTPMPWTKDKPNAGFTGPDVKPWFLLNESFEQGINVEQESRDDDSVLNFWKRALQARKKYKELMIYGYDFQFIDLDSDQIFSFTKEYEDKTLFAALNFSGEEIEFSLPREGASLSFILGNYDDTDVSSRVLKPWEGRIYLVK
# Experimental: α-Glucosidase assay was performed as reported in Bellesia et al., adapted to a microplate reader. The reaction was performed by mixing 66.7 μL of potassium phosphate buffer (67 mmol/L, pH 6.8), 3.3 μL of glutathione 3 mmol/L, 20 μL of different concentrations of water-soluble low-molecular weight peptide extracts, and 5 μL of yeast α-glucosidase 0.2 U/mL. After 20 min of incubation at 37 °C, the reaction was started by the addition of 5 μL of p-nitrophenyl-glucose 5 mmol/L. After a further 20 min of incubation at 37 °C, the reaction was stopped by the addition of 150 μL of Na2CO3 100 mmol/L. The amount of released p-nitrophenol was determined by reading at 405 nm with a microplate reader. Results were expressed as IC50 as reported above.
# (§1) Selected peptides were then synthesized (Bio-Fab Research, Rome, Italy) and tested for their inhibitory activity against DPP-IV, α-glucosidase, and α-amylase. The assays were carried out as reported in Section 2.3. The results were expressed as IC50 values.
# rat intestinal DPP-IV = target: T1, rat intestinal DPP-IV (Rattus norvegicus, UniProt P14740); test: Dipeptidyl peptidase IV (DPP-IV) assay; type: biochemical; conditions: synthetic peptides
# T1 construct: 10 μL of rat intestinal DPP-IV (0.1 U/mL in the assay); from tissue; host or cells: rat intestine
# T1 sequence (P14740 whole entry): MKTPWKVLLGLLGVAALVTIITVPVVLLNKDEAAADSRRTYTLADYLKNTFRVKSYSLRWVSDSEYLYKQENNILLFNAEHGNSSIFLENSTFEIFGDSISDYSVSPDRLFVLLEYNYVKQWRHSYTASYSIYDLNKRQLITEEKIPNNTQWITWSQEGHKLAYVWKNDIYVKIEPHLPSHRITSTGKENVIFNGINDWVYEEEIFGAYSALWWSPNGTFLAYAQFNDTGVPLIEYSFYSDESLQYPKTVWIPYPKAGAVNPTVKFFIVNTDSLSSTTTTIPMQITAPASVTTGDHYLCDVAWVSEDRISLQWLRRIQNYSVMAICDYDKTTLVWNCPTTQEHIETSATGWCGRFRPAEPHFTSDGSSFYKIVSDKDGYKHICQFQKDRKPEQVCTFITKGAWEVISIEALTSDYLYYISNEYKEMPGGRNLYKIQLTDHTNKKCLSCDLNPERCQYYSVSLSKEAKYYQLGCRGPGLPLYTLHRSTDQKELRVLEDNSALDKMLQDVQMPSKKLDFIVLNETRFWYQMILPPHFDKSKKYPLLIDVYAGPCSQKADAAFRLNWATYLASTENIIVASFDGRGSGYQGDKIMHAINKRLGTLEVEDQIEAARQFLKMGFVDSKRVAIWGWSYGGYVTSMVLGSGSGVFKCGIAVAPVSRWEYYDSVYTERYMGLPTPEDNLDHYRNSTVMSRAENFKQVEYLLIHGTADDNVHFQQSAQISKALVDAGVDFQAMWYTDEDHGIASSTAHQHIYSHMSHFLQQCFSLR
# Experimental: DPP-IV assay was performed as described in Tagliazucchi et al.. Briefly, in a 96-well plate, 10 μL of rat intestinal DPP-IV (0.1 U/mL in the assay) were mixed with 145 μL of Tris-HCl buffer (pH 7.0; 0.1 mol/L) and 40 μL of different concentrations of water-soluble low-molecular weight peptide extracts. After 20 min of incubation at 37 °C, the reaction was started by the addition of 5 μL of glycine-proline-p-nitroanilide (6.4 mmol/L). The amount of released p-nitroanilide was determined after 20 min of incubation at 37 °C by reading at 405 nm in a microplate reader. Results were expressed as IC50 as reported above.
# as §1
# α-glucosidase = conditions: cited from earlier work
compound,measurement,setting,value
"LLY (UniProt P02666 206-208, looked up, fragment) [β-casein f(191–193)]",Bioactivity: Immunomodulation,[1],Immunomodulation
same,Bioactivity: Anti-inflammatory,[2],Anti-inflammatory
same,Bioactivity: Antioxidant,[3],Antioxidant
"PGPIPN (UniProt P02666 78-83, looked up, fragment) [β-casein f(63–68)]",Bioactivity: Immunomodulation,[1],Immunomodulation
same,Bioactivity: ACE-inhibition,[4],ACE-inhibition
same,Bioactivity: Anti-inflammatory,[2],Anti-inflammatory
IPPLTQTPV [β-casein f(74–82)],Bioactivity: DPP-IV-inhibition,DPP-IV,DPP-IV-inhibition
same,IC50,DPP-IV,465 µM
"IPPL (UniProt P02666 89-92, looked up, fragment) [β-casein f(74–77)]",Bioactivity: DPP-IV-inhibition,DPP-IV,DPP-IV-inhibition
same,IC50,DPP-IV,429 µM
"WIQP (UniProt P02663 208-211, looked up, fragment) [αS2-casein f(193–196)]",Bioactivity: ACE-inhibition,[4],ACE-inhibition
same,Bioactivity: DPP-IV-inhibition,DPP-IV,DPP-IV-inhibition
same,IC50,DPP-IV,237 µM
"PGPIP (UniProt P02666 78-82, looked up, fragment) [β-casein f(63–67)]",Bioactivity: ACE-inhibition,[4],ACE-inhibition
"DKIHP (UniProt P02666 62-66, looked up, fragment) [β-casein f(47–51)]",Bioactivity: ACE-inhibition,[4],ACE-inhibition
"VEP (UniProt P02666 131-133, looked up, fragment) [β-casein f(116–118)]",Bioactivity: ACE-inhibition,[4],ACE-inhibition
"QEPV (UniProt P02666 209-212, looked up, fragment) [β-casein f(194–197)]",Bioactivity: Immunomodulation,[1],Immunomodulation
"PEL (UniProt P02662 162-164, looked up, fragment) [αS1-casein f(147–149)]",Bioactivity: Antioxidant,[3],Antioxidant
"LPLP (UniProt P02666 150-153, looked up, fragment) [β-casein f(135–138)]",Bioactivity: ACE-inhibition,[4],ACE-inhibition
same,IC50 values against ACE,[4],low
same,effect on systolic blood pressure,[5],powerful decreasing agents of systolic blood pressure
YLEQLLR [αS1-casein f(94–100)],Bioactivity: Anti-microbial,[6],Anti-microbial
"IVP (UniProt P02662 86-88, looked up, fragment) [αS1-casein f(71–73)]",Bioactivity: ACE-inhibition,[4],ACE-inhibition
"VVPP (UniProt P02666 98-101, looked up, fragment) [β-casein f(83–86)]",Bioactivity: ACE-inhibition,[4],ACE-inhibition
"YLG (UniProt P02662 106-108, looked up, fragment) [αS1-casein f(91–93)]",Bioactivity: Antioxidant,[3],Antioxidant
"YQEP (UniProt P02666 208-211, looked up, fragment) [β-casein f(193–196)]",Bioactivity: ACE-inhibition,[4],ACE-inhibition
LVYPFPGP [β-casein f(58–65)],Bioactivity: ACE-inhibition,[4],ACE-inhibition
"FGK (UniProt P02662 47-49, looked up, fragment) [αS1-casein f(32–34)]",Bioactivity: ACE-inhibition,[4],ACE-inhibition
QGPIVLNPWDQVKR [αS2-casein f(101–114)],Bioactivity: Antioxidant,[3],Antioxidant
O=C(O)[C@H](Cc1ccccc1)NC(=O)[C@@H]1CCCN1C(=O)[C@@H]1CCCN1 [PPF] (H-Pro-Pro-Phe-OH),inhibition at 1000 µM,yeast α-glucosidase,8.8 ± 1.3%
same,IC50,yeast α-glucosidase,> 1000 µM
same,IC50,rat intestinal DPP-IV,142 ± 1.7 µM
TEDELQDKIHPF [β-casein f(41–52)],Bioactivity: Anti-microbial,[6],Anti-microbial
"SLPQ (UniProt P02666 84-87, looked up, fragment) [β-casein f(69–72)]",Bioactivity: ACE-inhibition,[4],ACE-inhibition
"DKIHPF (UniProt P02666 62-67, looked up, fragment) [β-casein f(47–52)]",Bioactivity: ACE-inhibition,[4],ACE-inhibition
"LNF (UniProt P02663 176-178, looked up, fragment) [αS2-casein f(161–163)]",Bioactivity: ACE-inhibition,[4],ACE-inhibition
"LEE (UniProt P02666 18-20, looked up, fragment) [β-casein f(3–5)]",Bioactivity: ACE-inhibition,[4],ACE-inhibition
"TVY (UniProt P02663 197-199, looked up, fragment) [αS2-casein f(182–184)]",Bioactivity: ACE-inhibition,[4],ACE-inhibition
CC(C)C[C@H](N)C(=O)N1CCC[C@H]1C(=O)N1CCC[C@H]1C(=O)N[C@H](C(=O)O)[C@@H](C)O [LPPT] (H-LPPT-OH),IC50,rat intestinal DPP-IV,495.3 ± 3.6 µM
"PFPE (UniProt P02662 42-45, looked up, fragment) [αS1-casein f(27–30)]",Bioactivity: ACE-inhibition,[4],ACE-inhibition
"ENLLRF (UniProt P02662 33-38, looked up, fragment) [αS1-casein f(18–23)]",Bioactivity: ACE-inhibition,[4],ACE-inhibition
TKVIPYVRYL [αS2-casein f(198–207)],Bioactivity: Anti-microbial,[6],Anti-microbial
"EMPFPK (UniProt P02666 123-128, looked up, fragment) [β-casein f(108–113)]",Bioactivity: Anti-microbial,[6],Anti-microbial
same,Bioactivity: ACE-inhibition,[4],ACE-inhibition
"PFP (UniProt P02666 76-78, looked up, fragment) [β-casein f(61–63)]",Bioactivity: α-glucosidase inhibition,α-glucosidase; ref BIOPEP database and Milk Bioactive Peptides Database,α-glucosidase inhibition
same,IC50,"α-glucosidase; ref [53], read-out: IC50 α-glucosidase, previously reported",8600 µM
same,Bioactivity: ACE-inhibition,[4],ACE-inhibition
VVVPPF [VVVPPF],inhibition at 1000 µM,yeast α-glucosidase,22.5 ± 1%
same,IC50,yeast α-glucosidase,> 1000 µM
same,IC50,rat intestinal DPP-IV,610 ± 13.6 µM
"FVAP (UniProt P02662 39-42, looked up, fragment) [αS1-casein f(24–27)]",Bioactivity: ACE-inhibition,[4],ACE-inhibition
VVPPF [VVPPF],inhibition at 1000 µM,yeast α-glucosidase,22 ± 1.3%
same,IC50,yeast α-glucosidase,> 1000 µM
same,IC50,rat intestinal DPP-IV,699 ± 11.1 µM
"LVYPFP (UniProt P02666 73-78, looked up, fragment) [β-casein f(58–63)]",Bioactivity: ACE-inhibition,[4],ACE-inhibition
"PLW (UniProt P02662 212-214, looked up, fragment) [αS1-casein f(197–199)]",Bioactivity: ACE-inhibition,[4],ACE-inhibition
YQEPVLGPVRGPFPIIV [β-casein f(193–209)],Bioactivity: Anti-microbial,[6],Anti-microbial
same,Bioactivity: ACE-inhibition,[4],ACE-inhibition
"LHLPLP (UniProt P02666 148-153, looked up, fragment) [β-casein f(133–138)]",Bioactivity: ACE-inhibition,[4],ACE-inhibition
same,IC50 values against ACE,[4],low
same,effect on systolic blood pressure,[5],powerful decreasing agents of systolic blood pressure
"RELEEL (UniProt P02666 16-21, looked up, fragment) [β-casein f(1–6)]",Bioactivity: Antioxidant,[3],Antioxidant
"GTQY (UniProt P02662 185-187, looked up, fragment) [αS1-casein f(170–172)]",Bioactivity: ACE-inhibition,[4],ACE-inhibition
same,Bioactivity: Antioxidant,[3],Antioxidant
"YQL (UniProt P02662 169-171, looked up, fragment) [αS1-casein f(154–156)]",Bioactivity: Antioxidant,[3],Antioxidant
"YLGY (UniProt P02662 106-109, looked up, fragment) [αS1-casein f(91–94)]",Bioactivity: ACE-inhibition,[4],ACE-inhibition
same,Bioactivity: Antioxidant,[3],Antioxidant
"FFVAP (UniProt P02662 38-42, looked up, fragment) [αS1-casein f(23–27)]",Bioactivity: ACE-inhibition,[4],ACE-inhibition
DVPSERYLG [αS1-casein f(85–93)],Bioactivity: ACE-inhibition,[4],ACE-inhibition
VLP,Bioactivity: ACE-inhibition,[4],ACE-inhibition
YQGPIVLNPWDQVKR [αS2-casein f(100–114)],Bioactivity: Anti-microbial,[6],Anti-microbial
same,Bioactivity: Immunomodulation,[1],Immunomodulation
same,Bioactivity: ACE-inhibition,[4],ACE-inhibition
LPQ,Bioactivity: DPP-IV-inhibition,DPP-IV,DPP-IV-inhibition
same,IC50,DPP-IV,82 µM
"QGP (UniProt P02663 116-118, looked up, fragment) [αS2-casein f(101–103)]",Bioactivity: ACE-inhibition,[4],ACE-inhibition
APFPE [APFPE],IC50,rat intestinal DPP-IV,49.5 ± 0.5 µM
